We go through twelve compounds from ChEMBL document CHEMBL1134950, “Retro-binding thrombin active site inhibitors: identification of an orally active inhibitor of thrombin catalytic activity” (Bioorg Med Chem Lett, 2002).

For assay [1], the target named is Plasminogen (Homo sapiens, UniProt P00747). The experiment in a line: Concentration required to inhibit Plasmin was determined.
Assay [2] has as its system Mus musculus. The experiment in a line: Efficacy required to inhibit thrombin was determined after 1 hr of intravenous administration in the mouse thrombin challenge model. In kind it is functional.
The target of assay [3] is Coagulation factor X (Homo sapiens, UniProt P00742). The experiment in a line: Concentration required to inhibit Coagulation factor X was determined.
Sequence of Coagulation factor X (P00742 41-179 limits assumed): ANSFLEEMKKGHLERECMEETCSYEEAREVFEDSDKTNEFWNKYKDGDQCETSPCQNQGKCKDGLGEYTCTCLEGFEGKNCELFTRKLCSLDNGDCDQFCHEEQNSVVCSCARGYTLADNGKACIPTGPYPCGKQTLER
Sequence of Coagulation factor X (P00742 235-488 limits assumed): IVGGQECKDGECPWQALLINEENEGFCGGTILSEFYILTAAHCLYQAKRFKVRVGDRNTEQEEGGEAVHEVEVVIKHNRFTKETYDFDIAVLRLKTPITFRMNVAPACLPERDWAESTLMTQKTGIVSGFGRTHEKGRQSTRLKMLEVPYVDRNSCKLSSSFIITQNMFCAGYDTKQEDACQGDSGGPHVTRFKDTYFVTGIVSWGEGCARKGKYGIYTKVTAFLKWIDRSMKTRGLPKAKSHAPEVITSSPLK
The target in assay [4] is T1, Serine protease 1 (Bos taurus, UniProt P00760).
T1 sequence (P00760 whole entry): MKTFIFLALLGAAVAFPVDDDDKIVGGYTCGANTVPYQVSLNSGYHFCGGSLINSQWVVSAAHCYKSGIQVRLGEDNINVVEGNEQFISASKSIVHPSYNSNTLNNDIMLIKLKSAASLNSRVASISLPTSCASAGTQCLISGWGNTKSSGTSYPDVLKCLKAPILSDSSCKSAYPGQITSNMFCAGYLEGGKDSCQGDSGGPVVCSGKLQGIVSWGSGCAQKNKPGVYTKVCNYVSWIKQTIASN
The experiment in a line: Concentration required to inhibit Trypsin was determined.

Assay [5] deals with T2, Prothrombin (Homo sapiens, UniProt P00734). The experiment in a line: Concentration required to inhibit thrombin was determined.
The test system of assay [6] is Mus musculus. The experiment in a line: Efficacy required to inhibit thrombin was determined after 1 hr of oral administration in the mouse thrombin challenge model. Type of assay: functional.
Assay [7] has as its system Mus musculus. Briefly: Efficacy required to inhibit thrombin was determined after 10 min of intravenous administration in the mouse thrombin challenge model. In kind it is functional.
For assay [8], the target named is T3, Tissue-type plasminogen activator (Homo sapiens, UniProt P00750). The experiment in a line: Concentration required to inhibit tissue-type plasminogen activator (t-PA) was determined.
T3 sequence (P00750 whole entry): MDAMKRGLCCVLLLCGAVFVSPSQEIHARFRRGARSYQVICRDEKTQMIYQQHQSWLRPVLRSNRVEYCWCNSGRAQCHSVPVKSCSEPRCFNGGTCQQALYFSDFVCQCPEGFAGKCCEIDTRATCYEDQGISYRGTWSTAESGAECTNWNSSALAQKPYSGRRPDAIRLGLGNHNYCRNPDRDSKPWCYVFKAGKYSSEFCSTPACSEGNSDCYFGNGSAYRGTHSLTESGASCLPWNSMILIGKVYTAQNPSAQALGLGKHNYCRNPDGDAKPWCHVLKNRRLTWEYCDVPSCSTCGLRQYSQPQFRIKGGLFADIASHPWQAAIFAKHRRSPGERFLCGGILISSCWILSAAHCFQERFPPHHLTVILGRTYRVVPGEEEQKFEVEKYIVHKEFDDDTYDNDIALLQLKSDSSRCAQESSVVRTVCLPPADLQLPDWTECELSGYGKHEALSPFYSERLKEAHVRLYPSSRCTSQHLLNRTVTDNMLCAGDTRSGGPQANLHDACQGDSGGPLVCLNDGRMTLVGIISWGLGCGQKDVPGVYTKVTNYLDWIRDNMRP
For assay [9], the target named is T2, Prothrombin. The experiment in a line: Concentration required to inhibit Human alpha-thrombin was determined.
For assay [10], the target named is T3, Tissue-type plasminogen activator. The experiment in a line: Concentration required to inhibit Tissue-type plasminogen activator (t-PA) was determined.
The target in assay [11] is T2, Prothrombin. The experiment in a line: Inhibitory constant of thrombin catalytic activity was determined.

Sequence of Plasminogen (P00747 97-580 limits assumed): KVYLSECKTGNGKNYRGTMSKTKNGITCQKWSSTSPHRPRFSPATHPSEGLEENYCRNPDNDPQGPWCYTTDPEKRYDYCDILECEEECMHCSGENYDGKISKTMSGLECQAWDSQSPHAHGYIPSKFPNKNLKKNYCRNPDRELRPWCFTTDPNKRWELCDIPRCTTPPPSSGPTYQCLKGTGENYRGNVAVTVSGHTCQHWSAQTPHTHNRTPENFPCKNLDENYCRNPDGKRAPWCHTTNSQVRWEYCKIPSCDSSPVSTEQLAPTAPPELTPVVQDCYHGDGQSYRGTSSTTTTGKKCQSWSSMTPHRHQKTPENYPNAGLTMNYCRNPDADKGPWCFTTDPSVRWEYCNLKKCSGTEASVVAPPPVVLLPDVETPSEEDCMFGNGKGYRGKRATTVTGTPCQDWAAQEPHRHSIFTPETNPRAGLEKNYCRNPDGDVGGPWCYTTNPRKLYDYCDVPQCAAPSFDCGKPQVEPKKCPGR
Sequence of Plasminogen (P00747 581-810 limits assumed): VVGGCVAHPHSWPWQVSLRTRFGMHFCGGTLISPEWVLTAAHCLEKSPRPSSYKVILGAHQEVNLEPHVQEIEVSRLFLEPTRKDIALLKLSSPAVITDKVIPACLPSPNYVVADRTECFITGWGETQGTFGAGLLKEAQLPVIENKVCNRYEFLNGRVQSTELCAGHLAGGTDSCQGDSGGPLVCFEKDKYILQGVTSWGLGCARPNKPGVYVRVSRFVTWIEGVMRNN

A word on the IC50: it is the concentration that gives 50% inhibition. Broadly, the ED50 is the midpoint of the dose-response relation. A low value points to an effect at a small dose. Regarding `CC(O)[C@@H](C(=O)N[C@H](C)c1ccccc1)N(C)C(=O)[C@H](Cc1ccc([N+](=O)[O-])cc1)NC(=O)CCCN=C(N)N` (some centres not stated), the IC50 in assay [1] worked out at 230 nM; in [3], 4600 nM; in [4], 8 nM; in [5], 8 nM; in [8], 700 nM. In addition, the median effective dose (ED50) in assay [2] was determined as 2.2 mg/kg; in [6], 23 mg/kg; in [7] it was 0.21 mg/kg.
`CC(O)[C@H](NC(=O)[C@H](Cc1ccc([N+](=O)[O-])cc1)NC(=O)CCCN=C(N)N)C(=O)N[C@H](CO)c1ccccc1` (some centres not stated) returned a 50% inhibitory concentration (IC50) in assay [9] of 19 nM. This lies in the double-digit nanomolar range.
As for `CC(O)[C@H](NC(=O)[C@H](Cc1ccc([N+](=O)[O-])cc1)NC(=O)CCCN=C(N)N)C(N)=O` (some centres not stated), in [9], 230000 nM corresponded to half-maximal inhibition (IC50). This IC50 is about 12000-fold higher than that of the compound before.
In turn, `COC(=O)[C@@H](NC(=O)[C@@H](NC(=O)[C@H](Cc1ccc([N+](=O)[O-])cc1)NC(=O)CCCN=C(N)N)C(C)O)C1CCCCC1` (some centres not stated) gave a concentration for half-maximal inhibition (IC50) in [9] of 16 nM. Compared with the last compound, the IC50 is about 14000-fold lower.
Same read-out and setting: in the case of `CC(O)[C@H](NC(=O)[C@H](Cc1ccc([N+](=O)[O-])cc1)NC(=O)CCCN=C(N)N)C(=O)N[C@@H](C)c1ccccc1` (some centres not stated) it was 310 nM.
On to `CC(O)[C@H](NC(=O)[C@H](Cc1ccc([N+](=O)[O-])cc1)NC(=O)CCCN=C(N)N)C(=O)N[C@H](C)c1ccccc1` (some centres not stated), for which the IC50 in assay [9] was found to be 72 nM.
Still for that read-out and setting: as for `COC(=O)[C@@H](NC(=O)[C@@H](NC(=O)[C@H](Cc1ccc([N+](=O)[O-])cc1)NC(=O)CCCN=C(N)N)C(C)O)c1ccccc1` (some centres not stated), the figure is 8.3 nM; as for `CC(O)[C@H](NC(=O)[C@H](Cc1ccc([N+](=O)[O-])cc1)NC(=O)CCCN=C(N)N)C(=O)N[C@@H](C)Cc1ccccc1` (some centres not stated), 260 nM.
The same measure, in the same setting: in the case of `CC(O)[C@H](NC(=O)[C@H](Cc1ccc([N+](=O)[O-])cc1)NC(=O)CCCN=C(N)N)C(=O)N[C@H](C(=O)O)C1CCCCC1` (some centres not stated) it was 55 nM; in that of `CC(O)[C@H](NC(=O)[C@H](Cc1ccc([N+](=O)[O-])cc1)NC(=O)CCCN=C(N)N)C(=O)N[C@H](CO)C1CCCCC1` (some centres not stated), 19 nM; in that of `CC(O)[C@H](NC(=O)[C@H](Cc1ccc([N+](=O)[O-])cc1)NC(=O)CCCN=C(N)N)C(=O)N[C@H](C)Cc1ccccc1` (some centres not stated), 43 nM.
A word on the Ki: it is a measure of affinity in units of concentration, obtained from inhibition or displacement. With `CN[C@H](Cc1ccccc1)C(=O)N1CCC[C@H]1C(=O)N[C@H](C=O)CCCNC(=N)N` [EFEGATRAN], the IC50 worked out at 25000 nM in assay [1]; 16000 nM in assay [3]; 45 nM in assay [4]; 30 nM in assay [5]; 34000 nM in assay [10]. Further, the figures for the ED50 in assay [2], in [6] and in assay [7] were 3 mg/kg, 44 mg/kg and 0.04 mg/kg, respectively. Further, in assay [11], the Ki turned out to be 7 nM.
